Assay results published in patent US10058633B2, “Biodegradable scaffolds” (Board of Regents of the University of Texas System, priority 2010, dated 2018).

Test system: Human umbilical vein endothelial cells (HUVEC)
Assay: Cellular uptake of FITC-BSA released from PLGA/pSi microspheres (transwell, confocal)
Format: cell-based
Conditions: 7 days
Method: 40,000 HUVEC were seeded and cultured on a glass coverslip in a 12 well plate with 500 million PLGA/pSi microspheres loaded with FITC-BSA in a transwell on top of the cells. The media were changed every 3 days. Cellular uptake of FITC-BSA released from the PLGA/pSi microspheres was observed by confocal microscopy staining cells with fluorescent phalloidin (actin filaments) and DRAQ5 (nuclei) after fixation (10% formaldehyde).
Detection of the FITC-BSA loaded pSi particles was based on autofluorescence using 488 excitation laser and the cells were analyzed by using 561 and 632 excitation laser for pholloidin and DRAQ5 respectively. Images were acquired using a Leica MD 6000 upright confocal microscope equipped with a 63× oil immersion objective.

## BSA in solution: control group: bovine serum albumin in solution
  BSA accumulation in cells: did not show any BSA accommulation in cells
